From patent US7550459B2, “Tetrahydroquinoline analogues as muscarinic agonists” (Acadia Pharmaceuticals, Inc., priority 2001, dated 2009) come the findings set out here.

The target of this assay is T1, M1 muscarinic receptor (Homo sapiens, UniProt P11229).
T1 construct: expressed in transfected cells
T1 sequence (P11229 1-460): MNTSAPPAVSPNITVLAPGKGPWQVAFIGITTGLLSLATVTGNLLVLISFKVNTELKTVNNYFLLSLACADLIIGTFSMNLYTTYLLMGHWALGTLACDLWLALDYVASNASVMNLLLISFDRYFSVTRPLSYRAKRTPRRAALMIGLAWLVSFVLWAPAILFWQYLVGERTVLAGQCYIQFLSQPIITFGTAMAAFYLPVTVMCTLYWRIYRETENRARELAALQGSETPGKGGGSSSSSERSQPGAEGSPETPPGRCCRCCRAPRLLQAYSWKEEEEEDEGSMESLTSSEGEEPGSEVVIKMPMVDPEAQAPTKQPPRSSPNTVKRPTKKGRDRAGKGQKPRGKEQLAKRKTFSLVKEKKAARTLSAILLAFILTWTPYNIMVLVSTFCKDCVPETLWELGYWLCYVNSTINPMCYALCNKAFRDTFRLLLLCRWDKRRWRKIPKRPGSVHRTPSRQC
In words: Receptor Selection and Amplification (R-SAT) assay, cloned M1 receptor. The note with it: for Emax: read-out: m1 % Efficacy. Also noted: M1 Eff: scale not given here. Type of assay: cell-based. An excerpt:
The EC50 for an agonist is intended to denote the concentration of a compound needed to achieve 50% of a maximal response seen in an in vitro assay such as R-SAT. For inverse agonists, EC50 is intended to denote the concentration of a compound needed to achieve 50% inhibition of an R-SAT response from basal, no compound, levels.
A particularly convenient functional assay system is the receptor selection and amplification assay (R-SAT assay) in U.S. Pat. No. 5,707,798, which describes a method of screening for bioactive compounds by utilizing the ability of cells transfected with receptor DNA, e.g., coding for the different muscarinic subtypes, to amplify in the presence of a ligand of the receptor. Cell amplification is detected as increased levels of a marker also expressed by the cells.
Receptor Selection and Amplification (R-SAT) assays were carried out using the cloned M1-M5 receptors essentially as described in: Brauner-Osborne H, Brann M R. Pharmacology of muscarinic acetylcholine receptor subtypes (m1-m5): high throughput assays in mammalian cells. Eur J Pharmacol Jan. 4, 1996;295(1):93-102, and Spalding T A, Trotter C, Skjaerbaek N, Messier T L, Currier E A, Burstein E S, Li D, Hacksell U, Brann M R. Discovery of an ectopic activation site on the M(1) muscarinic receptor. Mol Pharmacol. 2002 June;61(6):1297-302.

Where [1] appears, read: R-SAT, second table (COMPOUND ID series).
The mark [2] stands for this setting: R-SAT, second table (COMPOUND ID series), read-out: M1 pEC50 (converted).
Setting [3] is: M1 pEC50, R-SAT, second table (COMPOUND ID series).
Setting [4] is: R-SAT, cloned m1 receptor, read-out: m1 pEC50 (converted).

Molecules are shown by their SMILES. Read-outs that look alike come from different tables or passages of the source.

In the case of `O=C1COc2c(F)ccc(F)c2N1CCCN1CCC(OCC2CC2)CC1` [Compound 00262869, 4-[3-(4-Cyclopropylmethoxypiperidin-1-yl)propyl]-5,8-difluoro-4H-benzo[1,4]oxazin-3-one], the “M1 Eff” value under setting [1] is 32. Moreover, under setting [2], the EC50 is 1580 nM.
Under setting [3], `O=C1CCc2cc(F)c(F)cc2N1CCCN1C2CCC1CC(=CCOCC1CC1)C2` [Compound 00262356, 1-{3-[3-(2-Cyclopropylmethoxyethylidene)-8-azabicyclo[3.2.1]oct-8-yl]-propyl}-6,7-difluoro-3,4-dihydro-1H-quinolin-2-one] had an EC50 of 31.6 nM. Moreover, under setting [1], the “M1 Eff” value is 46.
As to `CCCCCC1CC2CC[C@@H](C1)N2C[C@@H](C)CN1C(=O)COc2cc(F)ccc21` (stereo partly drawn) [Compound 112KK20-c5, (R,S)-7-Fluoro-4-[2-methyl-3-(3-pentyl-8-azabicyclo[3.2.1]oct-8-yl)propyl]-4H-benzo[1,4]oxazin-3-one], the Emax came out at 117%. Where the note is “m1 pEC50, R-SAT, cloned m1 receptor”, this compound showed an EC50 of 5.01 nM.
As to `CCOCCC1CC2CCC(C1)N2CC(C)CN1C(=O)COc2ccccc21` (single isomer, unassigned) [Compound 00262993], under setting [3], the EC50 is 79.4 nM. The “M1 Eff” value under setting [1] was 55.
As for `O=C1COc2cc(F)cc(F)c2N1CCCN1CCC(OCC2CC2)CC1` [Compound 00262471, 4-[3-(4-Cyclopropylmethoxypiperidin-1-yl)propyl]-5,7-difluoro-4H-benzo[1,4]oxazin-3-one], under setting [1], the “M1 Eff” value is 86. Under setting [2], the EC50 was 794 nM.
In the same order, the values of `O=C1COc2ccc(F)c(F)c2N1CCCN1CCC(OCC2CC2)CC1` [Compound 00262696, 4-[3-(4-Cyclopropylmethoxypiperidin-1-yl)propyl]-5,6-difluoro-4H-benzo[1,4]oxazin-3-one] are 83 and 631 nM.
Turning to `CCCCC1CCN(CCCN2C(=O)CCc3c2ccc(F)c3C)CC1` [Compound 107LH95-1, 1-[3-(4-Butyl-piperidin-1-yl)propyl]-6-fluoro-5-methyl-3,4-dihydro-1H-quinolin-2-one], the Emax (R-SAT, cloned m1 receptor) is 103%. Under setting [4], the EC50 was 25.1 nM.
In the same order, the values of `CCCCC1CCN(CCCN2CCCc3ccc(C(F)(F)F)cc32)CC1` [Compound 55LH54, 1-[3-(4-Butyl-piperidin-1-yl)-propyl]-7-trifluoromethyl-12.3.4-tetrahydro-quinoline] are 57% and 398 nM.
`CC(CN1C(=O)COc2ccccc21)CN1C2CCC1CC(=CCOCC1CC1)C2` [Compound 00262357, 4-{(R,S)-3-[3-(2-Cyclopropylmethoxyethylidene)-8-aza-bicyclo[3.2.1]oct-8-yl]-2-methylpropyl}-4H-benzo[1.4]oxazin-3-one] showed an EC50 under setting [3] of 12.6 nM. Further, under setting [1], the “M1 Eff” value was 79.
For the compound `CCOCC[C@@H]1C[C@H]2CC[C@@H](C1)N2C[C@H](C)CN1C(=O)COc2ccccc21` [Compound 00263034, (S)-4-{3-[3β-(2-Ethoxyethyl)-8-azabicyclo[3.2.1]oct-8-yl]-2-methylpropyl}-4H-benzo[1.4]oxazin-3-one], under setting [3], the EC50 is 158 nM. Also, the “M1 Eff” value under setting [1] amounted to 68.
Turning to `CCCC=C1CCN(C[C@@H](C)CN2C(=O)COc3ccc(OC)cc32)CC1` (racemic) [Compound 107LH74-3D, (R,S)-4-[3-(4-Butylidenepiperidin-1-yl)-2-methylpropyl]-6-methoxy-4H-benzo[1,4]oxazin-3-one], for the setting “R-SAT, cloned m1 receptor”, the “m1 % Efficacy” value is on record as 97% and the “m1 pEC50” value turned out to be 8.0.
With `COCC[C@H]1C[C@H]2CC[C@@H](C1)N2C[C@H](C)CN1C(=O)COc2ccccc21` [Compound 00263035, (S)-4-{3-[3a-(2-Methoxyethyl)-8-azabicyclo[3.2.1]oct-8-yl]-2-methylpropyl}-4H-benzo[1.4]oxazin-3-one], the EC50 under setting [3] was 251 nM. Moreover, under setting [1], the “M1 Eff” value is 97.
